Laboratory results published in patent US20260053811A1, “METHODS OF TREATING HYPERTENSION IN OBESE SUBJECTS” (Mineralys Therapeutics, Inc., priority 2022, published 2026).
Several values for one entry are separate records, joined by “and”; a condition that tells them apart may be missing. Identical values can stand only once.

Assays:
Assay type in all cases: in vivo, human
11-deoxycortisol = test: Plasma 11-deoxycortisol (pharmacodynamic response); conditions: for 11-Deoxycortisol, Mean (SD) Observed / 11-Deoxycortisol, Mean (SD) Percent Change from Baseline: Part 1; for 11-Deoxycortisol, Mean Observed / 11-Deoxycortisol, Mean Percent Change from Baseline: Part 2
Source text: (§1) PK/PD Analysis Set includes all subjects in the SAF who have sufficient data available for the analysis of pharmacokinetic and pharmacodynamic measurements. In the analyses based on PKPD, subjects will be analyzed according to the actual treatment received.

hypertensive subjects = test: Serum sodium; conditions: active treatment cohorts; Parts 1 and 2
serum cortisol = test: Serum cortisol (pharmacodynamic response); conditions: for Serum cortisol percent change from baseline / Cortisol, Mean Observed / Cortisol, Mean Percent Change from Baseline: Part 2; for Serum cortisol percent change from baseline, range across active arms / Cortisol, Mean (SD) Observed / Cortisol, Mean (SD) Percent Change from Baseline: Part 1
Source text: as §1

CC(=O)N[C@H]1CC[C@H](NC(=O)CN2CCN(c3nncc(-c4ccc(C)cc4)n3)CC2)CC1 [Compound A HBr]
11-Deoxycortisol, Mean (SD) Observed (11-deoxycortisol; Wk 4, 50 mg QD): 27.15 (13.97) ng/dL | 11-Deoxycortisol, Mean (SD) Percent Change from Baseline (11-deoxycortisol; Wk 4, 50 mg QD): 10.80 (61.95) % | 11-Deoxycortisol, Mean (SD) Observed (11-deoxycortisol; Wk 4, 100 mg QD): 29.29 (23.99) ng/dL | 11-Deoxycortisol, Mean (SD) Percent Change from Baseline (11-deoxycortisol; Wk 4, 100 mg QD): 9.43 (60.26) % | 11-Deoxycortisol, Mean (SD) Observed (11-deoxycortisol; Wk 12, 12.5 mg BID): 20.94 (10.27) ng/dL | 11-Deoxycortisol, Mean (SD) Percent Change from Baseline (11-deoxycortisol; Wk 12, 12.5 mg BID): −14.58 (33.13) % | 11-Deoxycortisol, Mean (SD) Observed (11-deoxycortisol; Wk 12, 12.5 mg QD): 31.56 (29.77) ng/dL | 11-Deoxycortisol, Mean (SD) Percent Change from Baseline (11-deoxycortisol; Wk 12, 12.5 mg QD): 58.62 (122.14) % | 11-Deoxycortisol, Mean (SD) Observed (11-deoxycortisol; Wk 12, 25 mg BID): 31.55 (26.82) ng/dL | 11-Deoxycortisol, Mean (SD) Percent Change from Baseline (11-deoxycortisol; Wk 12, 25 mg BID): 26.81 (72.59) % | 11-Deoxycortisol, Mean (SD) Observed (11-deoxycortisol; Wk 12, 50 mg QD): 26.15 (18.89) ng/dL | 11-Deoxycortisol, Mean (SD) Percent Change from Baseline (11-deoxycortisol; Wk 12, 50 mg QD): 9.25 (111.16) % | 11-Deoxycortisol, Mean (SD) Observed (11-deoxycortisol; Wk 12, 100 mg QD): 31.17 (25.98) ng/dL | 11-Deoxycortisol, Mean (SD) Percent Change from Baseline (11-deoxycortisol; Wk 12, 100 mg QD): 22.05 (64.71) % | 11-deoxycortisol compared with placebo (11-deoxycortisol; Part 1 active treatment arms, Week 4): Transient increases | 11-Deoxycortisol, Mean Observed (11-deoxycortisol; Wk 4, 100 mg QD): 35.96 ng/dL | 11-Deoxycortisol, Mean Percent Change from Baseline (11-deoxycortisol; Wk 4, 100 mg QD): 22.95% | 11-Deoxycortisol, Mean Observed (11-deoxycortisol; Wk 10, 100 mg QD): 27.60 ng/dL | 11-Deoxycortisol, Mean Percent Change from Baseline (11-deoxycortisol; Wk 10, 100 mg QD): −2.13% | Serum sodium levels (hypertensive subjects): decreased | Serum cortisol percent change from baseline (serum cortisol; 100 mg QD, Week 4): 20.1% | Serum cortisol percent change from baseline (serum cortisol; 100 mg QD, Week 8): 153.4% | Serum cortisol percent change from baseline (serum cortisol; 100 mg QD, Week 12): 1.5% | Serum cortisol percent change from baseline, range across active arms (serum cortisol; Week 4): 3.8% to 19.2% | Serum cortisol percent change from baseline, range across active arms (serum cortisol; Week 8): 20.6% to 51.4% | Serum cortisol percent change from baseline, range across active arms (serum cortisol; Week 12, listed as lorundrostat): −1.2% to 22.7% and −1.2 to 22.6% | Cortisol, Mean (SD) Observed (serum cortisol; Wk 4, 12.5 mg BID): 10.895 (3.859) μg/dL | Cortisol, Mean (SD) Percent Change from Baseline (serum cortisol; Wk 4, 12.5 mg BID): 10.26 (45.03) % | Cortisol, Mean (SD) Observed (serum cortisol; Wk 4, 12.5 mg QD): 9.305 (4.164) μg/dL | Cortisol, Mean (SD) Percent Change from Baseline (serum cortisol; Wk 4, 12.5 mg QD): 7.47 (37.82) % | Cortisol, Mean (SD) Observed (serum cortisol; Wk 4, 25 mg BID): 12.311 (5.180) μg/dL | Cortisol, Mean (SD) Percent Change from Baseline (serum cortisol; Wk 4, 25 mg BID): 19.20 (49.39) % | Cortisol, Mean (SD) Observed (serum cortisol; Wk 4, 50 mg QD): 10.875 (3.368) μg/dL | Cortisol, Mean (SD) Percent Change from Baseline (serum cortisol; Wk 4, 50 mg QD): 3.83 (32.48) % | Cortisol, Mean (SD) Observed (serum cortisol; Wk 4, 100 mg QD): 11.842 (4.350) μg/dL | Cortisol, Mean (SD) Percent Change from Baseline (serum cortisol; Wk 4, 100 mg QD): 3.91 (32.33) % | Cortisol, Mean (SD) Observed (serum cortisol; Wk 8, 12.5 mg BID): 12.316 (7.649) μg/dL | Cortisol, Mean (SD) Percent Change from Baseline (serum cortisol; Wk 8, 12.5 mg BID): 20.56 (73.01) % | Cortisol, Mean (SD) Observed (serum cortisol; Wk 8, 12.5 mg QD): 12.511 (8.784) μg/dL | Cortisol, Mean (SD) Percent Change from Baseline (serum cortisol; Wk 8, 12.5 mg QD): 41.84 (90.37) % | Cortisol, Mean (SD) Observed (serum cortisol; Wk 8, 25 mg BID): 15.525 (8.258) μg/dL | Cortisol, Mean (SD) Percent Change from Baseline (serum cortisol; Wk 8, 25 mg BID): 49.57 (77.17) % | Cortisol, Mean (SD) Observed (serum cortisol; Wk 8, 50 mg QD): 15.650 (7.102) μg/dL | Cortisol, Mean (SD) Percent Change from Baseline (serum cortisol; Wk 8, 50 mg QD): 51.35 (78.86) % | Cortisol, Mean (SD) Observed (serum cortisol; Wk 8, 100 mg QD): 16.680 (9.083) μg/dL | Cortisol, Mean (SD) Percent Change from Baseline (serum cortisol; Wk 8, 100 mg QD): 47.29 (92.65) % | Cortisol, Mean (SD) Observed (serum cortisol; Wk 12, 12.5 mg BID): 9.978 (2.742) μg/dL | Cortisol, Mean (SD) Percent Change from Baseline (serum cortisol; Wk 12, 12.5 mg BID): −1.22 (21.10) % | Cortisol, Mean (SD) Observed (serum cortisol; Wk 12, 12.5 mg QD): 9.317 (3.294) μg/dL | Cortisol, Mean (SD) Percent Change from Baseline (serum cortisol; Wk 12, 12.5 mg QD): 18.06 (48.59) % | Cortisol, Mean (SD) Observed (serum cortisol; Wk 12, 25 mg BID): 12.559 (4.287) μg/dL | Cortisol, Mean (SD) Percent Change from Baseline (serum cortisol; Wk 12, 25 mg BID): 22.65 (41.94) % | Cortisol, Mean (SD) Observed (serum cortisol; Wk 12, 50 mg QD): 11.262 (3.590) μg/dL | Cortisol, Mean (SD) Percent Change from Baseline (serum cortisol; Wk 12, 50 mg QD): 6.91 (35.36) % | Cortisol, Mean (SD) Observed (serum cortisol; Wk 12, 100 mg QD): 12.680 (5.659) μg/dL | Cortisol, Mean (SD) Percent Change from Baseline (serum cortisol; Wk 12, 100 mg QD): 8.40 (30.09) % | Cortisol, Mean Observed (serum cortisol; Wk 4, 100 mg QD): 13.464 µg/dL | Cortisol, Mean Percent Change from Baseline (serum cortisol; Wk 4, 100 mg QD): 20.10% | Cortisol, Mean Observed (serum cortisol; Wk 8, 100 mg QD): 25.393 µg/dL | Cortisol, Mean Percent Change from Baseline (serum cortisol; Wk 8, 100 mg QD): 153.35% | Cortisol, Mean Observed (serum cortisol; Wk 10, 100 mg QD): 10.763 µg/dL | Cortisol, Mean Percent Change from Baseline (serum cortisol; Wk 10, 100 mg QD): 1.45% | Effects on serum cortisol (serum cortisol; pooled (Part 1 and Part 2) 100 mg QD safety set (n=60)): no effects on serum cortisol | Effects on serum cortisol (serum cortisol; safety dataset, complete analysis): no effects on serum cortisol | Morning serum cortisol levels (serum cortisol; summary of trial): modestly increased
